Data published in patent US9506056B2, “Nucleic acid functionalized nanoparticles for therapeutic applications” (NORTHWESTERN UNIVERSITY, priority 2006, dated 2016).
Counter-ions that a name gives are not always drawn.

Tested on: A549 cells
Assay: Cell viability of dox-treated A549 cultures with oligonucleotide-modified nanoparticles
Assay type: cell-based, human
Conditions: dox alone at 25 μm dox concentration
Procedure: As proof of the oligonucleotide-modified gold nanoparticle for drug control concept, the anticancer drug doxorubicin hydrochloride (dox) in a lung cancer cell model (A549) was investigated. […] However, when an oligonucleotide functionalized nanoparticle agent containing a non-specific sequence is added to the culture at the same point as the drug molecule, a dose-dependant recovery of cell viability is observed (cells recover to approximately 80% viable at 3 nM concentration of nanoparticles). The dox-treated cells were then examined in the presence of an anti-survivin oligonucleotide modified gold nanoparticle conjugate. […] In these studies, the anti-survivin containing nanoparticle agent added to the culture at the same point as the drug molecule reduce cell viability to 45% at low concentrations and recover cell viability to 75% at high concentrations (FIG. 3).

## COc1cccc2c1C(=O)c1c(O)c3c(c(O)c1C2=O)C[C@@](O)(C(=O)CO)C[C@@H]3O[C@H]1C[C@H](N)[C@H](O)[C@H](C)O1 [dox, doxorubicin hydrochloride]
  cell viability: approximately 60%
